From PMC10442743 (Dalton Transactions (Cambridge, England : 2003), 2023)
Where two headings read alike, the source gives them in different places.

How the values were obtained:
MCF-7 = test: MTT cytotoxicity assay, MCF-7 cells; format: cell-based, human; conditions: MTT
Experimental: (§1) The cytotoxicity of 1–11CA was assessed against human breast cancer MCF-7 and MDA-MB-231 cells, and non-tumorigenic adherent mouse fibroblast connective tissue L929 cells using the MTT assay after 24 and 72 h (Tables S5 ^† and Table 1, respectively).
(§2) Then, necessary dilutions were made using the supplement DMEM, to prepare the range of tested concentrations. Since DMSO was used to solubilize the compounds, a supplemented DMEM + DMSO (at the same percentage as in the sequential dilutions) was considered as a control in the 3-[4,5-dimetylthiazole-2-yl]-2,5-diphenyltetrazolium bromide (MTT) assay.
(§3) L929, MCF-7, and MDA-MB-231 cell lines were cultured in DMEM supplemented with 10% (v/v) FBS and 1% (v/v) of penicillin–streptomycin. The cells were incubated in a humidified chamber at 37 °C under saturated air with a 5% CO2 atmosphere. Cells were passed at 80%–90% of confluency with 0.25% (w/v) trypsin and the cell culture media was changed every 2–3 days.
(§4) The compounds were tested on two breast cancer cell lines (MCF-7 and MDA-MB-231) and L929 fibroblasts, used as a reference for the safety evaluation according to ISO 10993-1:2009 “Biological evaluation of medical devices”. Cells were seeded on sterile 96-well plates at 50 000 cells per well (L929) and 20 000 cells per well (MCF-7 and MDA-MB-231) in supplemented DMEM medium (100 μL) for 24 h. The culture medium was removed and new media containing different concentrations of the compounds (0–1000 μM) was added to the wells (100 μL). Control cells were incubated under the same conditions in the absence of a compound. Cells were incubated for 24 and 72 h under the same conditions described above. Then, the medium was removed, and the cells were incubated with 3-(4,5-dimethylthiazol-2-yl)-2,5-diphenyltetrazolium bromide (MTT; 0.5 mg mL^−1) for 3 h. After this time, the medium was removed, and formazan crystals were solubilized with DMSO (100 μL per well). The absorbance in each well was read on a SynergyTM HT Multimode microplate reader (BioTek Instruments; Winooski, VT, USA) at 570 and 630 nm (for background correction), and the cell viability was calculated according to the following equation (eqn (1)):1 [drawing 3] where OD570(sample) and OD630(sample) are the optical densities of the solutions containing the compounds and OD570(control) and OD630(control) are controls without compound.
(§5) Each apoptosis value determination represents the mean ± standard deviation of 2 independent assays. The IC50 values were obtained using GraphPad Prism software and ANOVA (analysis of variance) was performed to determine the statistical difference between the IC50 values of different cell lines.

MDA-MB-231 = test: MTT cytotoxicity assay, MDA-MB-231 cells; format: cell-based, human; conditions: MTT
Experimental: as §1, §2, §3, §4, §5

L929 = test: MTT cytotoxicity assay, L929 fibroblasts (and selectivity index); format: cell-based, mouse; conditions: for SI (selectivity index): IC50 L929 divided by average IC50 of the breast cancer cell lines; for IC50: MTT
Experimental: as §1, §2, §3, §4, §5

[1] = Molar conductivity in acetonitrile; format: physicochemical; conditions: 1 mM in acetonitrile, 25 °C
Experimental: The molar conductivity (ΛM, reported as S·cm2·mol–1) of solutions of 11CA in acetonitrile (1 mM) were measured in a Radiometer Copenhagen CDM92 equipped with a conductivity cell CDC641T glass platinum electrode at room temperature (25 °C). The conductivity of the pure solvent was used as standard controls.
Table S3. Solubility in water at 25 °C, n-octanol/water partition coefficient and molar conductivity of the 11CA. * below limit of detection = 5 ppt.

[2] = tested on: 14-mer ssDNA 5′–3′ (ATACATGGTACATA); conditions: 3 : 1 ratio, 37 °C, 24 h
Experimental: (§6) Tandem mass spectrometry was used to investigate the binding mode interaction of 11Cl with single- (ss) and double-strand (ds) DNA oligomers.[77,78]
(§7) 11Cl was incubated with 14-mer ssDNA 5′–3′ ([…]) and 6-mer dsDNA 5′–3′ (AGGCAG) in a 3 : 1 ratio at 37 °C in MilliQ water. After 24 h the solution was centrifuged with an Amicon® Ultra 0.5 mL centrifugal filter 3 kDa MWCO to remove the unreacted metal complex and excess salts.

[3] = tested on: 6-mer dsDNA 5′–3′ (AGGCAG); conditions: 3 : 1 ratio, 37 °C, 24 h
Experimental: as §6, §7

[4] = Solubility in water (ICP-MS); conditions: 25 °C, limit of detection = 5 ppt
Experimental: sonication, the mixtures were stirred at 25 °C for 1 h. The saturated solutions were filtered
to remove any insoluble solids, dissolved in 0.5 mL of MilliQ water, and analyzed using
ICP-MS. Samples were submitted to acidic digestion with 2 mL of concentrated HNO3
(DigiPREP Jr. 15ml, 40 Pos, SCP Science). The digestion program was the following: 15
min to heat to 100°C and keep at 100°C for 60 min. After the digestion, the sample
volumes were precisely adjusted to 5 mL with MilliQ water. Samples were further diluted
30 times with 2% HNO3 solution and their Ru content was analyzed by ICP-MS using
standard mode on NexIon 350 D ICP-MS instrument (PerkinElmer). Yttrium was added
as an internal standard at a concentration of 2 ppb to all the solution and Ru quantitation
was performed using an external calibration curve with standards in the 0.05-50 ppb
range. All measurements were performed in triplicates.

[5] = Stability in solution (ESI-MS, NMR); conditions: 1 mM
Experimental: The stability of 11CA under pseudo-physiological conditions was assessed using ESI-MS and ^1H and ^31P NMR spectroscopy.
Stability studies were performed on 11CA over 72 h at 37 °C.
The stability of 11Cl was also monitored over
72 h via 1H and 31P NMR spectroscopy. The complex was fully dissolved in d6-DMSO,
diluted with D2O to reach 10% d6-DMSO in D2O (1 mM final concentration) and, finally,
the pD was adjusted to 7.2 ± 0.1 (neutral conditions). Furthermore, the stability of 11Cl
and 11BPh4 was also assessed in 100% d6-DMSO (1 mM final concentration) as a highly

[6] = target: bovine serum albumin (BSA) (Bos taurus, UniProt P02769); test: BSA binding assay (tryptophan fluorescence quenching)
Experimental: BSA (16 μM) in 10 mM Tris-HCl pH 7.6 + 1 mM EDTA solution and varying concentrations of 11Cl (0–32 μM) were incubated at 37 °C for 24 h. Afterward, the fluorescence spectra were measured for each solution between 300 and 500 nm (λex = 280 nm). The intensity at λmax (340 nm) was recorded.

ct-DNA = test: Competitive DNA binding assay with fluorescent probes (DAPI, MG, PI)
Experimental: From the obtained fluorescence data, apparent DNA binding constants, Kapp, were calculated according to the competitive binding model described by Tse and Boger.[66]
Emission intensity measurements were performed using a SpectraMax M5e reader at room temperature. A 50 μM (bp) of ct-DNA was pre-incubated with the groove binding agents (MG and DAPI) (2 μM) and the intercalating agent propidium iodide (2 μM) for 30 min at 37 °C, to allow full interaction of the dyes into the ctDNA. Increasing amounts of 11Cl (0–100 μM) were added to this mixture and the final samples were incubated for 24 h at 37 °C. After incubation, the emission spectra were recorded at excitations of 633, 358, and 535 nm for the measurements of MG, DAPI, and PI, respectively. Quenching parameters were obtained by applying the Stern–Volmer equation (eqn (2)). The apparent binding constants, Kapp, were calculated according to the competitive binding model described by Tse and Boger[66] using eqn (4):[90]4 Kprobe[probe] = Kappc50where Kprobe is the binding constant of the probe, 9 × 10^5 and 5 × 10^6 M^−1 for MG[91] and DAPI,[92] respectively; [probe] is the concentration of probe used, 10 μM for both MG and DAPI; and c50 is the complex concentration when the fluorescence intensity of the probe is 50%. This value is obtained from the plot F0/F vs. [Q] when F0/F = 2.

ctDNA = test: Circular dichroism / induced circular dichroism with calf thymus DNA
Experimental: Calf thymus (ct) DNA (Merck®) was used to perform the circular dichroism assay to detect conformational changes in the ctDNA induced by the compounds. CD spectral data was collected on a Chirascan™ V100 (Applied Photophysics) spectropolarimeter equipped with a large area Avalanche photodiodes detector and computer-controlled thermoelectrical cell holder using a 1 cm path length quartz cuvette. CD spectra of ctDNA in the absence and presence of different concentrations of 11Cl were recorded at wavelengths ranging from 320 to 190 nm under constant nitrogen flush at 25 °C. For each CD spectrum, the number of scans was set to 5, and spectral data were collected at 0.1 ms intervals. Additionally, methyl green (MG) and 4′,6-diamidino-2-phenylindole (DAPI), and propidium iodide (PI) were analyzed as minor and major groove binders and as an intercalator, respectively, to help identify the binding mode of 11Cl to DNA. Samples were prepared in 10 mM Tris-HCl buffer (pH 7.6) with 1 mM EDTA. The concentration of ctDNA was fixed at 100 μM (concerning base pairs) and the ctDNA to 11Cl ratio was varied between 0 and 1. The samples were incubated for 24 h at 37 °C and then analyzed in the CD spectropolarimeter.

[7] = complex concentration at 50% probe fluorescence, Table S9
[8] = ctDNA, DAPI competitive binding, Table S9
[9] = ctDNA, MG competitive binding, Table S9

Chain of bovine serum albumin (BSA) (P02769 25-607): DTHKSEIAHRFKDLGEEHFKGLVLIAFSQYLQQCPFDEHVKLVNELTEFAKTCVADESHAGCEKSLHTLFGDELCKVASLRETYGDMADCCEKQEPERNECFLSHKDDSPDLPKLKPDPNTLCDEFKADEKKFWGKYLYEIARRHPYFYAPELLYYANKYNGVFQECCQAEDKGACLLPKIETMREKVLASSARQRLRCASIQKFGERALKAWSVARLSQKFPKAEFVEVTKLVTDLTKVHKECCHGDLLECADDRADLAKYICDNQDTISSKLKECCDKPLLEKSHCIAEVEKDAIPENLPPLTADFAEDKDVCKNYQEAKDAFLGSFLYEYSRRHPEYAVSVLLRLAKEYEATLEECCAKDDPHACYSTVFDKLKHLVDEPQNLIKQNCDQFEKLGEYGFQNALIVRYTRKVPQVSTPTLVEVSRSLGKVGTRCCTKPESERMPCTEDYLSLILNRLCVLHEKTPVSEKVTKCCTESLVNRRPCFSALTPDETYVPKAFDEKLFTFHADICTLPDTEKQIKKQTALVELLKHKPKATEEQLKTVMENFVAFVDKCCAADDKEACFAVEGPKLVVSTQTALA

Cc1ccccc1.[Cl-].[Cl][Ru+]([PH](c1ccccc1)(c1ccccc1)c1ccccc1)[PH](c1ccccc1)(c1ccccc1)c1ccccc1 [Compound 11Cl, [Ru(η^6-toluene)(PPh3)2Cl]Cl]
IC50 (MCF-7; 24 h exposure, read-out: IC50 (µM) (average ± standard deviation) 24 h MCF-7): 4 ± 0.3 µM | IC50 (MCF-7; 72 h exposure, read-out: IC50 (μM) (average ± standard deviation) 72 h MCF-7): 0.061 ± 0.003 µM | IC50 (MDA-MB-231; 24 h exposure, read-out: IC50 (µM) (average ± standard deviation) 24 h MDA-MB-231): 5.5 ± 0.6 µM | IC50 (MDA-MB-231; 72 h exposure, read-out: IC50 (μM) (average ± standard deviation) 72 h MDA-MB-231): 0.086 ± 0.006 µM | selectivity for the breast cancer cell lines compared to the healthy ones (L929): ~10 fold | SI (selectivity index) (L929; 24 h): 1.1 | IC50 (L929; 24 h exposure, read-out: IC50 (µM) (average ± standard deviation) 24 h L929): 5.3 ± 0.7 µM | SI (selectivity index) (L929; 72 h): 11.8 | IC50 (L929; 72 h exposure, read-out: IC50 (μM) (average ± standard deviation) 72 h L929): 0.87 ± 0.05 µM | Conductivity (molar conductivity) [1]: 128 S·cm2/mol | identified ssDNA ions containing ruthenium [2]: 43% | identified dsDNA ions containing ruthenium [3]: 23% | Solubility (μM) [4]: 528 ± 88 µM | Solubility (μg/mL) [4]: 416 ± 70 µg/mL | stability by NMR spectroscopy in neutral conditions ([5]; 10% d6-DMSO in D2O, pD 7.2, 72 h): No signs of hydrolysis or decomposition were observed | stability in DMSO (NMR) ([5]; 100% d6-DMSO, 72 h): No changes were observed | bimolecular quenching rate kq (BSA) ([6]; BSA 16 μM, 37 °C, 24 h): 1.9e+12 M⁻¹ s⁻¹ | binding constant to BSA ([6]; BSA 16 μM, 37 °C, 24 h): 560000 M⁻¹ | KSV (BSA) ([6]; Table S8): 1.13 ± 0.08 104 M−1 | kq (BSA) ([6]; Table S8): 1.88 ± 0.14 1012 M−1 | n (number of binding sites, BSA) ([6]; Table S8): 1.4 | n (number of binding sites in BSA) ([6]; estimated value): ~1 | C50, DAPI probe (ct-DNA; [7]): 1.1 10−4 M | C50, MG probe (ct-DNA; [7]): 2.1 10−4 M | KSV, DAPI probe (ct-DNA; [8]): 8.8 ± 0.6 103 M−1 | Kapp, DAPI probe (ct-DNA; [8]): 4.4 ± 0.3 105 M−1 | kq, DAPI probe (ct-DNA; [8]): 3.3 ± 0.3 1012 M−1 | KSV, MG probe (ct-DNA; [9]): 4.8 ± 0.7 103 M−1 | Kapp, MG probe (ct-DNA; [9]): 0.43 ± 0.04 105 M−1 | kq, MG probe (ct-DNA; [9]): 0.48 ± 0.07 1012 M−1 | quenching of PI (intercalator probe) fluorescence (ct-DNA; ctDNA, probe PI): no linear quenching was observed | preference towards the minor groove (ct-DNA; from difference of Kapp values): 10 fold | CD band 210 nm, intensity change (ctDNA; DNA, 24 h, 37 °C): decrease in the ellipticity | CD band 210 nm, wavelength shift (ctDNA; DNA, 24 h, 37 °C): remained unchanged | CD band 220 nm (hydrogen bonding), intensity change (ctDNA; DNA, 24 h, 37 °C): increase in the circularity | CD band 220 nm (hydrogen bonding), wavelength shift (ctDNA; DNA, 24 h, 37 °C): small bathochromic (red) shift | CD band 246 nm (helicity), intensity change (ctDNA; DNA, 24 h, 37 °C): decrease in the ellipticity | CD band 246 nm (helicity), wavelength shift (ctDNA; DNA, 24 h, 37 °C): remained unchanged | CD band 268−280 nm (base-pair stacking interactions), intensity change (ctDNA; DNA, 24 h, 37 °C): decrease in the ellipticity | CD band 268−280 nm (base-pair stacking interactions), wavelength shift (ctDNA; DNA, 24 h, 37 °C): remained unchanged | decrease of the intensity of the ICD bands of DAPI (ctDNA; DNA–DAPI after treatment with 11Cl): 35% | decrease of the intensity of the ICD bands of MG (ctDNA; DNA–MG after treatment with 11Cl): 20%
